Assay results reported in the supplement of paper PMC4862054.

What was measured:
MDA-MB-436 = assay: normalised viability (% of control), CellTiter-Blue; higher = more viable cells (about 100 = DMSO control); settings: incubation time: 72 h
Outline: (§1)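 Each value is normalised viability at a single listed concentration of the series. Breast cancer cell lines in 384-well plates were incubated 72 h with compound and read by CellTiter-Blue fluorescence at 560/590 nm, with vehicle set to 100 and a positive kill control to 0 on every plate.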

HCC1599 = assay: as above; settings: incubation time: 72 h
Outline: as §1

MDA-MB-231 = assay: as above; settings: incubation time: 72 h
Outline: as §1

HCC1937 = assay: as above; settings: incubation time: 72 h
Outline: as §1

CAL-148 = assay: as above; settings: incubation time: 72 h
Outline: as §1

MFM-223 = settings: 72 h
Outline: (§2)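 Breast cancer cell lines (20 µl suspension) were seeded into 384-well plates holding compound at 5 concentrations in 10-fold steps over a compound-specific 10,000-fold range, then incubated 72 h. Cell death was read first by CellTox Green fluorescence (485/520 nm), then viability by CellTiter-Glo luminescence after 10 min at room temperature. Each plate was normalised to 0.1 % DMSO and a positive kill control. EC50 was fitted from the dose-response curves and censored at the top concentration.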

BT-474 = settings: 72 h
Outline: as §2

Structure (SMILES)	normalised viability (MDA-MB-436; 10 nM) [%]	normalised viability (MDA-MB-436; 1000 nM) [%]	normalised viability (MDA-MB-436; 10000 nM) [%]	normalised viability (HCC1599; 10 nM) [%]	normalised viability (HCC1599; 1000 nM) [%]	normalised viability (HCC1599; 10000 nM) [%]	normalised viability (MDA-MB-231; 10 nM) [%]	normalised viability (MDA-MB-231; 1000 nM) [%]	normalised viability (MDA-MB-231; 10000 nM) [%]	normalised viability (HCC1937; 10 nM) [%]	normalised viability (HCC1937; 1000 nM) [%]	normalised viability (HCC1937; 10000 nM) [%]	normalised viability (CAL-148; 3 nM) [%]	normalised viability (CAL-148; 30 nM) [%]	normalised viability (CAL-148; 100 nM) [%]	EC50, CellTiter-Glo (MFM-223) [µM]	EC50, CellTiter-Glo (BT-474) [µM]
OC[C@H]1O[C@@H](n2cnc3c2N=CNC[C@H]3O)C[C@@H]1O [Pentostatin]	93.4	88.4	89.5	88.3	92.3	93.4	98.5	102	108	80.3	91.8	84.2	116	115	110	–	–
N#CC[C@H](C1CCCC1)n1cc(-c2ncnc3[nH]ccc23)cn1 [Ruxolitinib]	93.2	112	102	114	102	91.1	72.7	101	110	114	94.1	74	92	82.4	94.1	> 10	> 10
C=CC[C@@H]1/C=C(\C)C[C@H](C)C[C@H](OC)[C@H]2O[C@@](O)(C(=O)C(=O)N3CCCC[C@H]3C(=O)O[C@H](/C(C)=C/[C@@H]3CC[C@@H](O)[C@H](OC)C3)[C@H](C)[C@@H](O)CC1=O)[C@H](C)C[C@@H]2OC [Tacrolimus]	116	104	108	109	101	95.5	109	105	113	114	63.1	92.5	97.3	101	101	–	> 10
